Measurements: PubChem BioAssay AID1996
≈ marks a conversion by molar mass, not a printed value.

Details: buffer; pH 7.4; 200.0 µM

Structure (SMILES) | solubility kinetic
Cc1cc(NC(=O)C(C)Sc2nc(-c3ccccc3)cc(=O)[nH]2)no1 (stereo not given) | 17.4 µg/mL (≈ 48.8 µM)
COc1ccc(CCNC(=O)COC(=O)/C=C/c2ccc3c(c2)OCO3)cc1OC | 12.7 µg/mL (≈ 30.7 µM)
COc1ccc2c(c1OC)C(=O)N(c1ccc(F)cc1)C2 | 3.8 µg/mL (≈ 13.2 µM)
CCOc1ccc(OCC)c(S(=O)(=O)NCc2ccccc2)c1 | 40.7 µg/mL (≈ 121 µM)
O=C(Nc1ccc(F)cc1F)c1cc(Cl)sc1Cl | < 0.7 µg/mL
CC(=O)c1ccc(OCC(=O)NCc2ccc(F)cc2)cc1 | > 45.2 µg/mL
Cc1cc(OCC(=O)Nc2ccncc2)ccc1Cl | 40.6 µg/mL (≈ 147 µM)
O=C(Nc1ccc2c(c1)OCO2)Nc1ccc(F)cc1F | 0.9 µg/mL (≈ 3.08 µM)
O=C(COc1ccc2ccccc2c1)Nc1nccs1 | 3.9 µg/mL (≈ 13.7 µM)
Cc1cc2nc(NCCCO)n(CC(=O)c3cc(C(C)(C)C)c(O)c(C(C)(C)C)c3)c2cc1C | 0.5 µg/mL (≈ 1.07 µM)
CCOc1ccc(NC(=O)NC2CC(=O)N(c3ccc(OC)cc3)C2)cc1 (stereo not given) | 7.7 µg/mL (≈ 20.8 µM)
CCN(C(=S)NCc1ccccc1)c1cccc2ccccc12 | 2.7 µg/mL (≈ 8.43 µM)
CC(C)NC(=O)c1cccc2c1-c1ccccc1C2=O | 13.3 µg/mL (≈ 50.1 µM)
C=C(C)c1cccc(C(C)(C)NC(=O)N2CCN(c3ccccc3)CC2)c1 | 0.3 µg/mL (≈ 0.825 µM)
Cc1ccc(N2CCN(C(=O)NC3CCCCC3)CC2)c(C)c1 | 1.6 µg/mL (≈ 5.07 µM)
CN(c1ccccc1)c1ccc([N+](=O)[O-])c2nonc12 | 2.1 µg/mL (≈ 7.77 µM)
COCc1cc(C)nc(NC2CC(C)(C)NC(C)(C)C2)c1C#N | > 47.5 µg/mL
O=C(Nc1cccc(Cl)c1)OC1CN2CCC1CC2 (stereo not given) | 3.6 µg/mL (≈ 12.8 µM)
O=C(COc1ccc(Cl)cc1[N+](=O)[O-])N1CCCCC1 | > 44.8 µg/mL
O=C(NC(=S)Nc1ccc(CN2CCOCC2)cc1)c1ccco1 | > 51.8 µg/mL
COCCCN(C(=S)Nc1ccc(OC)cc1)C(C)c1ccncc1 (stereo not given) | > 53.9 µg/mL
CCc1ccc(NC(=S)N2CCN(c3cccc(OC)c3)CC2)cc1 | 0.3 µg/mL (≈ 0.844 µM)
Cc1ccc(Cl)c(OCC(=O)Nc2ccccc2C(=O)NC2CC2)c1 | 5.9 µg/mL (≈ 16.4 µM)
COCc1cc(=O)[nH]c(-c2ccccc2OC(F)(F)F)n1 | > 45 µg/mL

Structure (SMILES) | solubility kinetic
COc1ccc(CCNC(=O)COC(=O)/C=C/c2ccc3c(c2)OCO3)cc1 | 2.2 µg/mL (≈ 5.74 µM)
COc1cc(-c2csc(NC3CCCCC3)n2)cc(OC)c1OC | 6.6 µg/mL (≈ 18.9 µM)
COCCNC(=O)C12CC3CC(CC(Cl)(C3)C1)C2 | > 40.8 µg/mL
CN1CCCN(C(=O)c2cccc(Br)c2)CC1 | 35.4 µg/mL (≈ 119 µM)
Cc1cc(C(=O)NC2=NCCS2)c2ccccc2n1 | > 40.7 µg/mL
NC(=O)COC(=O)c1c2c(nc3ccccc13)CCCC2 | 39.4 µg/mL (≈ 139 µM)
O=C(C1CCC1)N1CCN(c2ccnc3cc(Cl)ccc23)CC1 | 45.4 µg/mL (≈ 138 µM)
COc1ccc(C(=O)O/N=C(\N)c2ccccc2)cc1OC | 23.8 µg/mL (≈ 79.3 µM)
Cc1ccc([N+](=O)[O-])cc1NC(=O)C(C)N1CCCCC1 (stereo not given) | 40.4 µg/mL (≈ 139 µM)
Cc1ccc(-n2c(O)c(C=NCC3CCCO3)c(=O)[nH]c2=O)c(C)c1 (stereo not given) | > 51.5 µg/mL
O=S(=O)(c1cc(F)ccc1F)N1CCN(c2ncnc3ccccc23)CC1 | 56.7 µg/mL (≈ 145 µM)
CCOC(=O)c1c(-c2ccc(C)s2)csc1N | 7.3 µg/mL (≈ 27.3 µM)
CCc1ccc(C(C)NC(=O)c2ccncc2)cc1 (stereo not given) | > 38.1 µg/mL
COC(=O)c1ccc(N2C(=O)C3CC=CC(C)C3C2=O)cc1 (stereo not given) | 20 µg/mL (≈ 66.8 µM)
CCCCNc1c(N)n(CC(C)C)c(=O)[nH]c1=O | 35.9 µg/mL (≈ 141 µM)
CSCC(=O)Nc1nc(-c2ccc3c(c2)OCCO3)cs1 | 5.2 µg/mL (≈ 16.1 µM)
Clc1ccc2c(NCc3cccs3)ncnc2c1 | 4.5 µg/mL (≈ 16.3 µM)
FC(F)(F)c1cccc(NC2=NCCCS2)c1 | 33.7 µg/mL (≈ 129 µM)
O=C(CSc1nc2ccccc2s1)NC1CCCC1 | 38.6 µg/mL (≈ 132 µM)
Cc1ccc(CNC(=O)C2CCCN2C(=O)Nc2ccc(C)cc2)cc1 (stereo not given) | 11.4 µg/mL (≈ 32.4 µM)
COc1ccc(CNC(=O)Cn2cncn2)cc1OC | > 41.4 µg/mL
COc1ccc(CC(=O)Nc2cc(S(=O)(=O)N3CCOCC3)ccc2N2CCCC2)cc1OC | > 73.4 µg/mL
O=C(Nc1ncc(Cc2cccc(Cl)c2Cl)s1)C1CCCO1 (stereo not given) | 1.9 µg/mL (≈ 5.32 µM)
CCCn1c(=O)c(-c2nc3ccccc3[nH]2)c(O)c2ccccc21 | 0.4 µg/mL (≈ 1.25 µM)

Structure (SMILES) | solubility kinetic
Cn1c(Cl)cnc1C(O)(c1ccccc1)c1ccccc1 | 10.2 µg/mL (≈ 34.1 µM)
COc1ccccc1C(C)NC(=O)CCOc1cccc(C)c1 (stereo not given) | 2.4 µg/mL (≈ 7.66 µM)
Cc1ccc2nc(-c3ccc(O)cc3)oc2c1 | 1.7 µg/mL (≈ 7.55 µM)
COc1ccc(NC2CC(=O)N(c3cccc([N+](=O)[O-])c3)C2=O)cc1 (stereo not given) | > 51.2 µg/mL
O=C(NC1CCCCC1)C1CC(=O)N(c2ccccc2)C1 (stereo not given) | 38.5 µg/mL (≈ 134 µM)
Cn1c2ccc(F)cc2c2ncn(CC3CCCO3)c(=O)c21 (stereo not given) | 4 µg/mL (≈ 13.3 µM)
Cc1cc2c(cc1S(=O)(=O)N1CCOCC1)NC(=O)CO2 | > 46.9 µg/mL
CCCN(CCC)C(=O)Nc1ccc(F)cc1F | > 38.4 µg/mL
O=C(CCl)Nc1sccc1C(=O)c1ccccc1 | 3.6 µg/mL (≈ 12.9 µM)
CC(=O)C1=C(O)C(=O)N(Cc2ccccc2)C1c1ccc([N+](=O)[O-])cc1 (stereo not given) | > 52.9 µg/mL
CCCCN(C)C(=O)C1CCN(Cc2cccnc2)CC1 | > 43.4 µg/mL
CC(C)(C)OC(=O)N1CCC(CNC(=O)c2cccs2)CC1 | 42.4 µg/mL (≈ 131 µM)
CN(C)c1ccc(C(=O)/C=C/c2cccnc2)cc1 | 6.7 µg/mL (≈ 26.6 µM)
N#Cc1ccc(C(=O)NC2CCCCCCC2)cc1 | > 38.5 µg/mL
Cc1nn(-c2ccccc2)c(N)c1N=O | > 30.3 µg/mL
Cc1ccc(S(=O)(=O)Nc2ccc(Oc3cccnc3)nc2)cc1 | 16.8 µg/mL (≈ 49.2 µM)
C=CCNc1nc(-c2c(C)nc3ncccn23)cs1 | > 40.7 µg/mL
COC(=O)N1CCN(c2ccc(C)c(C)c2)CC1 | 32.1 µg/mL (≈ 129 µM)
CCOC(=O)CN1C(=O)C2(OCCCO2)c2cc(Br)ccc21 | 31.5 µg/mL (≈ 85.1 µM)
Cc1ccc(S(=O)(=O)Nc2cccnc2)c(C)c1C | 9.1 µg/mL (≈ 32.9 µM)
COC(=O)COc1ccc(-c2nccc(-c3ccccn3)n2)cc1 | 2.4 µg/mL (≈ 7.47 µM)
Cc1c(C(=O)C(=O)N2CCN(C)CC2)c2ccccc2n1C | > 44.9 µg/mL
CN(C)CCOC(=O)c1ccc2[nH]c3c(c2c1)CSCC3.Cl | 49.2 µg/mL
CCOc1ccc(N(CC(=O)Nc2cccc(C)c2)S(C)(=O)=O)cc1 | 35.6 µg/mL (≈ 98.2 µM)

Structure (SMILES) | solubility kinetic
CC1CC(C)CN(C(=O)COC(=O)COc2ccccc2C#N)C1 (stereo not given) | > 49.6 µg/mL
CCn1c(O)c(C=NCc2ccccc2)sc1=S | < 0.3 µg/mL
COCC1CCN(Cc2nc(-c3ccc(OC)cc3)no2)CC1 | 41 µg/mL (≈ 129 µM)
O=C1CN(C(=O)COC(=O)[C@@H]2CC(O)CN2S(=O)(=O)c2ccc(Cl)cc2)c2ccccc2N1 (stereo not given in full) | > 74.1 µg/mL
CCOC(=O)N1CCN(C(=O)CNC(=O)c2ccccc2F)CC1 | > 50.6 µg/mL
CC1=C(Nc2ccc(C(=O)O)cc2)C(=O)c2ccccc2C1=O | > 46.1 µg/mL
Cn1c(Cc2ccccc2)nnc1SCC(=O)Nc1ccccc1 | > 50.8 µg/mL
CNc1nc(N)c([N+](=O)[O-])c(NC2CCCCC2)n1 | 1.7 µg/mL (≈ 6.38 µM)
CCC(=O)N1CC(=O)Nc2ccc(F)cc2C1c1ccc(F)cc1 (stereo not given) | > 49.6 µg/mL
Cc1nc2cc(NS(=O)(=O)c3ccccc3)ccc2n1C | 15.6 µg/mL (≈ 51.8 µM)
O=C1CCC([N+](=O)[O-])C(c2ccccc2Br)N1 (stereo not given) | > 44.9 µg/mL
COc1cccc2[nH]c3c(=O)n(CCCN4CCOCC4)cnc3c12 | > 51.4 µg/mL
CC(NC(=O)c1ccc(Br)s1)c1ccncc1 (stereo not given) | > 46.7 µg/mL
CC(OC(=O)c1cccs1)C(=O)NC1CC1 (stereo not given) | > 35.9 µg/mL
COc1ccc(NC(=O)Nc2cccc3ccccc23)cc1OC | 0.4 µg/mL (≈ 1.24 µM)
COc1ccc([N+](=O)[O-])c(OC)c1C(=O)NC(=O)Nc1nc(C)nc(C)n1 | > 56.4 µg/mL
Cc1ccc2nc(SCC(=O)NCc3ccc(F)cc3)[nH]c2c1 | 22.4 µg/mL (≈ 68 µM)
CNC(=S)N1CCN(CCNC2=CC(=O)CC(C)(C)C2)CC1 | 44.4 µg/mL (≈ 137 µM)
CC(=O)Nc1c2c(nn1-c1ccc(F)cc1)CSC2 | > 41.6 µg/mL
COCc1cc(=O)[nH]c(SCC(=O)N2CCOCC2)n1 | > 44.9 µg/mL
Oc1ccc(Br)cc1CNc1ccccn1 | 3.4 µg/mL (≈ 12.2 µM)
CCOc1ccc(NC(=O)NC2CCCc3ccccc32)cc1 (stereo not given) | 0.4 µg/mL (≈ 1.29 µM)
O=C(CSc1nc2ncccc2[nH]1)c1ccc2c(c1)OCO2 | 0.7 µg/mL (≈ 2.23 µM)
COc1ccc(C(=O)O)cc1NCc1cccnc1 | 36.8 µg/mL (≈ 142 µM)

Structure (SMILES) | solubility kinetic
CCCCN(Cc1cc2cc(C)ccc2[nH]c1=O)C(=O)c1ccccn1 | > 52.4 µg/mL
CCOC(=O)C1=C(c2ccccc2)NC(=S)NC1c1ccc(Cl)cc1 (stereo not given) | 5.3 µg/mL (≈ 14.2 µM)
COc1ccc(C(=O)c2nc3ccccc3n2C(C)C)cc1OC | 46.1 µg/mL (≈ 142 µM)
CC(C)N(Cc1ccccc1)C(=O)COC(=O)C1CCCCC1 | 46.6 µg/mL (≈ 147 µM)
COc1ccc(CCNCCN2CCOCC2)cc1.Cl | 24.9 µg/mL
O=S(=O)(Cc1ccc(Cl)cc1)N1CCCCCC1 | 4.5 µg/mL (≈ 15.6 µM)
C=CCNC(=O)c1ccc(S(=O)(=O)CC)c(Cl)c1Cl | > 48.3 µg/mL
COc1ccc2oc(=O)c(C(=O)NC(C)c3ccccc3)cc2c1 (stereo not given) | < 0.7 µg/mL
O=C(COC(=O)c1ccccc1O)NCCc1c[nH]c2ccccc12 | 7.8 µg/mL (≈ 23.1 µM)
O=C1NC(=O)C(C(CC(=O)c2ccccc2)c2ccccc2)C(=O)N1 (stereo not given) | > 50.5 µg/mL
N#Cc1cncc(C#Cc2ccccc2)c1 | 5.6 µg/mL (≈ 27.4 µM)
Cc1ccc(C(=O)Nc2cc3[nH]c(=O)oc3cc2C)cc1 | 4.8 µg/mL (≈ 17 µM)
N#Cc1ccc(OCC(=O)N2CCCC2=O)cc1 | > 36.6 µg/mL
CCC1(C)Cc2ccccc2-c2nc[nH]c(=O)c21 (stereo not given) | 2.8 µg/mL (≈ 11.7 µM)
Cn1ccnc1SCC(=O)Nc1cccc(C#N)c1 | > 40.8 µg/mL
Cc1ccc(-c2ccc(/C=N/O)o2)cc1[N+](=O)[O-] | 3.4 µg/mL (≈ 13.8 µM)
COc1ccc(CNC(=O)COC(=O)/C=C/c2cccc(Cl)c2)cc1 | 3.3 µg/mL (≈ 9.17 µM)
O=C(COc1ccccc1Br)Nc1ccc2c(c1)OCCCO2 | 1.6 µg/mL (≈ 4.23 µM)
Cc1ccc(-c2nc3ccccc3c(=O)o2)cc1 | 1.2 µg/mL (≈ 5.06 µM)
O=C(O)CCCN1C(=O)/C(=C/c2ccncc2)SC1=S | > 46.3 µg/mL
CC(=O)N/C(=C\c1ccc(Cl)cc1)C(=O)O | 34.7 µg/mL (≈ 145 µM)
Cc1ccc2nc(SCC(=O)NC3CCCC3)[nH]c2c1 | 36.1 µg/mL (≈ 125 µM)
CC(C)[C@H](NC(=O)c1ccc(Cl)cc1)C(=O)OCC(=O)N1CCN(c2ccccc2)CC1 | 52.5 µg/mL (≈ 115 µM)
Cc1cccc(C(=O)Oc2cc(C)[nH]c(=O)c2[N+](=O)[O-])c1 | > 43.2 µg/mL
